In patent publication US20150133411A1, “COMPOUNDS WITH TRPV4 ACTIVITY, COMPOSITIONS AND ASSOCIATED METHODS THEREOF” (The University of Utah Research Foundation, priority 2012, published 2015):

Columns and labels:
TRPV4 = TRPV4 (Mus musculus, UniProt Q9EPK8); test: AGB cation influx into retinal cells (anti-AGB antibody); format: cell-based; design: these two cell types express TRPV4 channels in the mouse retina; from tissue; host or cells: mouse retina (retinal ganglion cells and Müller glial cells); details: mouse retina
Chain of TRPV4 (Q9EPK8 whole entry): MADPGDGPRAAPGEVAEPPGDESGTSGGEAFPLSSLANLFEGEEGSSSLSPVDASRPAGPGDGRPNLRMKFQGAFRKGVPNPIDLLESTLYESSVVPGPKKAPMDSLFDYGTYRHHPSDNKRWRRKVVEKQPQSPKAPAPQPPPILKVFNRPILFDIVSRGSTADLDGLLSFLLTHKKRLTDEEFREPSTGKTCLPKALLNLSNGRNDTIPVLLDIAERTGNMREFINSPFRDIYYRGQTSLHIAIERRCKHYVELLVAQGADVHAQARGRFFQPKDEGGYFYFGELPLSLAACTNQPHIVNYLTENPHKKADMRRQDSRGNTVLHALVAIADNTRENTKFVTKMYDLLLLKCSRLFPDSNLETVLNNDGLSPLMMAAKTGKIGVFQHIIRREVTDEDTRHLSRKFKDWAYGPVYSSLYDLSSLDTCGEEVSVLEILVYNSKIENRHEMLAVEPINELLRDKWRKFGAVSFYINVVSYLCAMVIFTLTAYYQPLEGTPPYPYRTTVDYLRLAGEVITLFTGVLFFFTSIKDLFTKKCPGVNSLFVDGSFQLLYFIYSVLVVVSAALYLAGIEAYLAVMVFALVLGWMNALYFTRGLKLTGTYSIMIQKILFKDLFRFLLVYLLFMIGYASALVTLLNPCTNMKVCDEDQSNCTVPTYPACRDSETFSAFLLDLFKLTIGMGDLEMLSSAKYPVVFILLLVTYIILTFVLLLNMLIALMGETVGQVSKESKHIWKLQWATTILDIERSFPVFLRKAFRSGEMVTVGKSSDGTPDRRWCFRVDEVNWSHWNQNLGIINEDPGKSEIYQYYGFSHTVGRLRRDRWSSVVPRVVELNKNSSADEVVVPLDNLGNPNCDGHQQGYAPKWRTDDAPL
Protocol: FIG. 16 illustrates the effect of the TRPV4 agonist GSK on cation influx into mouse retinal cells of the mouse retina. The influx was determined using the anti-AGB antibody, as described by Marc R E (J Comp Neurol 407(1): 47-64, 1999). AGB is a membrane permeant cation that can flow through most known cation channels. Using an anti-AGB antibody, it can be determined where the cation flux occurs and, therefore, which cells are activated.

retinal ganglion cells = test: RGC density (TuJ-1+, CFP+) in retinal wholemounts of MB-injected mice; format: in vivo, mouse
Protocol: FIG. 2 confirms that the mouse model for glaucoma causes RGC degeneration. Specifically, microbeads (MBs) were injected into the anterior chamber of a mouse eye. The MBs increase intraocular IOP above 15 mm Hg by blocking outflow of the aqueous humor within the anterior chamber of the eye. MBs were reinjected as needed to maintain a high IOP, typically one injection every two weeks. Contralateral eyes were injected intraocularly with the vehicle PBS (phosphate buffered saline) as controls. […] IOP levels were measured at least twice weekly before and after intraocular injections. After injections, mice recovered for 48 hours before IOP measurements resumed. Following 4 or 8 weeks of IOP elevation, mice were intracardially perfused with 4% paraformaldehyde in 1× PBS to fix the retinas. Retinas were then removed and processed for immunohistochemistry (IHC). Whole retinas were rinsed with 1× PBS three times at room temperature then incubated in blocking buffer (1× PBS+1% BSA). […] The density of RGCs was imaged with a confocal microscope (Zeiss LSM 510) and quantified by counting NeuN-, CFP- and/or Tuj-1-labeled somata in the RGC layer of the retinal wholemount preparation. […]
RGD density was quantified in retinas isolated from TuJ-1^+ mice and transgenic Thy1-CRP^+ transgenic mice that had been injected with either MBs or vehicle (PBS) then dosed with either compound 1 or vehicle (PBS). […] TuJ-1 was quantified by immunohistochemistry using a Tuj-1-specific antibody conjugated to a fluorescent Alexa 488 or Alexa 594 secondary antibody. […] For fluorescence immunocytochemistry, retinal wholemounts were washed in PBS, then placed for 30 min. to 1 hour in blocking solution (10 ml PBS, 30 μL Triton-X 100, 100 mg bovine serum albumin, 100 μL 10% w/v Na azide solution) in OCT (Ted Pella, Redding, Pa.). […]

retinal ganglion cell = test: High-Speed Pressure Clamp, pressure-induced inward currents; format: cell-based; details: voltage-clamped retinal ganglion cell, pressure steps 10 to 50 mm Hg
Protocol: The cell was voltage clamped and stimulated with the High-Speed Pressure Clamp method, as detailed by Besch et al (Pflugers Arch. 2002 October; 445(1):161-6). This method consists of a specialized headstage coupled to a piezo element in the pressure/vacuum control valve. By balancing the access of pressure to the patch pipette, the device generates rapid and reproducible pressure steps of >±200 mm Hg. Channel activity is recorded in the cell-attached mode or the membrane is “zapped” into the outside-out configuration.

**Q.** Cc1c(C(=O)Nc2cccc(C(F)(F)F)c2)cc(-c2ccccc2)n1CCCN1CCOCC1 [Compound 1, N-(3-(trifluoromethyl)phenyl)-2-methyl-1-(3-morpholinopropyl)-5-phenyl-1H-pyrrole-3-carboxamide] was tested. Which “effect on GSK-induced AGB cation influx” value (TRPV4) did it give?
**A.** The value was “strongly antagonized”.

**Q.** And the “TuJ-1+ cells in alpha, beta and omega regions” value (retinal ganglion cells; MB-injected mice)?
**A.** Its value is “rescues RGCs across all regions of the retina”.

**Q.** And the “density of RGCs (TuJ-1+ and Thy1:CFP+ cells)” value (retinal ganglion cells; MB-injected mice, 8 weeks of increased IOP)?
**A.** Its value is “RGC loss was rescued”.

**Q.** And the “CFP+ cells in alpha, beta and omega regions” value (retinal ganglion cells; Thy1-CFP transgenic mice, MB-injected)?
**A.** Its value is “rescues RGCs across all regions of the retina”.

**Q.** What about the pressure-induced inward currents (retinal ganglion cell) of the same compound?
**A.** Its pressure-induced inward currents is “reversibly antagonized”.
